# Source: patent publication US20090054403A1, “Treatment of Post-Traumatic Stress Disorder” (priority 2007, published 2009)
# Legend:
# [1] = system: mean arterial pressure and heart rate; assay: Hemodynamic study in conscious, restrained SHR; format: in vivo, spontaneously hypertensive rats (SHR)
# Method: FIG. 13: Effects of orally administered 2a on mean arterial pressure in conscious, restrained spontaneously hypertensive rats (SHR). SHR were lightly anesthetized with ether and instrumented for measurement of arterial pressure and drug administration. The animals were placed in restrainers and allowed to recover for 30-40 minutes. […] All data are expressed as mean±standard error of mean. n=6-8 per group. […] IR spectra were recorded on a Nicolet SPC FT-IR spectrometer. UV spectra were recorded on a Varian Cary 3 UV-Visible spectrometer, Leeman Labs Inc. Optical rotations were measured in a Perkin-Elmer Model 141 polarimeter. […] Hemodynamic study in SHR. Male SHR (15-16 week old) were used in the study. The animals were lightly anesthetized with ether and the left femoral artery and vein were catheterized for measurement of blood pressure and drug administration, respectively. The animals were placed in restrainers and allowed to recover for 30-40 min. […] The animals were then anesthetized with pentobarbital, placed on a heating pad (37° C.) and ventilated with a Harvard rodent ventilator. After administration of atropine (1 mg/kg, iv) and tubocurarine (1 mg/kg, iv), the animals were pithed through the orbit of the eye with a stainless steel rod. The […] rod was stimulated electrically with 1 ms pulses of 80V at different frequencies (0.15, 0.45, 1.5, 5, 15 Hz) to obtain frequency-pressor response curves.
# [2] = system: β-adrenergic receptor; assay: Left ventricular [3H]CGP-12177 saturation binding after treatment; design: species or system beagle dogs; details: 10 mg/kg/day
# Method: Ventricles were homogenized in 50 mM Tris-HCl, 5 mM Na2EDTA buffer (pH 7.4 at 4° C.) using a Polytron P-10 tissue disrupter (setting 10, 2×15 second bursts). Homogenates were centrifuged at 500×g for 10 minutes and the supernatants stored on ice. The pellets were washed by resuspension and centrifugation at 500×g and the supernatants combined. The combined supernatants were centrifuged at 48,000×g for 20 minutes. The pellets were washed by resuspension and centrifugation once in homogenizing buffer and twice in 50 mM Tris-HCl, 0.5 mM EDTA buffer (pH 7.4 at 4° C.). Membranes were stored at −70° C. until required. Saturation experiments were conducted using [^3H] CGP-12177 in buffer containing 50 mM Tris-HCl, 0.5 mM EDTA (pH 7.4 at 32° C.). Non-specific binding was defined by 10 uM isoproterenol. Total bound, non-specific bound and total count tubes were set up for eight concentrations of [^3H] […] Aquasol scintillation fluid was added to each vial and radioactivity determined by liquid scintillation counting. Saturation binding isotherms were analyzed after first converting total ligand concentrations to free ligand concentrations (total−bound=free). […] Tissue catecholamine levels were analyzed by comparing nepicastat-treated groups with the placebo (control) treated groups. […] Additionally, a linear orthogonal contrast was calculated for all three doses within the context of a one-way ANOVA. […]
# [3] = system: cardiovascular parameters; assay: Cardiovascular effects of acute intravenous dosing in normal anesthetized dogs; format: in vivo; details: 1-10 mg/kg i.v., up to five hours
# [4] = system: aortic contractile response to phenylephrine; assay: Aortic contractile response in vitro to phenylephrine after 21 days treatment; format: in vivo, SHR; details: 10 mg/kg p.o. daily for 21 days
smiles,measurement,setting,value
"Cl.NCc1c[nH]c(=S)n1[C@H]1CCc2c(F)cc(F)cc2C1 [nepicastat, (S)-5-Aminomethyl-1-(5,7-difluoro-1,2,3,4-tetrahydronaphth-2-yl)-2,3-dihydro-2-thioxo-1H-imidazole hydrochloride]",decrease in heart rate,[1]; 10 mg/kg oral,9.8%
same,maximal decrease in mean blood pressure,[1]; 10 mg/kg oral,53±4 mmHg
same,reduction in mean blood pressure relative to vehicle control,[1]; 10 mg/kg oral,33%
same,decrease in pressure,"[1]; 10 mg/kg, 4 hours after dosing",−46 mmHg
same,decrease in heart rate,[1]; 30 mg/kg oral,10.5%
same,duration of antihypertensive effects,[1]; acute oral administration,> 4 h
same,time to plateau of antihypertensive response,[1]; oral dosing,3 to 4 h
same,"β-adrenergic receptor binding, treated vs vehicle left ventricular samples",[2],no difference
same,cardiovascular effects,[3],no cardiovascular effects
same,aortic phenylephrine responsiveness,[4],restored phenylephrine responsiveness
